# Measurements from patent US20110027354A1, “ANTI-PA[…]” (priority 2008, published 2011).
# Assays:
# phospho-Akt = assay: Phosphorylation of Akt at Ser473 (western blot); assay type: in vivo, mice; conditions: striatum; for effect on MPTP-induced decrease in phospho-Akt: vs. MPTP alone
# Description: (§1) The western blot assays were performed as described previously (thong et al., 1997). Tissues were homogenized in lysis buffer, containing 200 mM Tris HCl (pH 6.8), 1% SDS, 5 mM ethylene glycol tetraacetic acid, 5 mM ethylenediaminetetraacetic acid, 10% glycerol, 1× phosphatase inhibitor cocktail I, 1× protease inhibitor cocktail. The supernatant fraction was subsequently centrifuged at 30,000×g for 30 min. The resulting pellet was resuspended in the sample buffer. Proteins (20-50 ug/lane) were separated by 6%, 8%, 10% or 15% sodium dodecyl sulfate-polyacrylamide gel electrophoresis and transferred onto the nitrocellulose membranes. Following transfer, the nitrocellulose membranes were preincubated with 5% non-fat milk and incubated overnight at 4° C. with anti-β-actin (Sigma, 1:50000), anti-TH (Chemicon, 1:5000), anti-TH phosphoser19 (Chemicon, 1:5000), anti-TH phosphoser31 (Chemicon, 1:500), anti-TH phosphoser40 (Chemicon, 1:500), anti-F 4/80 (Serotec, 1:500), anti-BDNF (Chemicon, 1:500), anti-GDNF (Santa-Cruz, 1:250), anti-Akt (Cell signaling, 1:1000), anti-phospho Akt ser 473 (Cell signaling, 1:1000), anti-PI3K (Cell signaling, 1:1000), anti-phospho PI3K (Cell signaling, 1:500) and anti-α-synuclein (BD Transduction, 1:500) antibody. After incubation with primary antibody, membranes were incubated with the secondary anti-rabbit IgG, Horseradish Peroxidase (1:1000 dilution, Amersham) or anti-mouse IgG, Horseradish Peroxidase (1:1000, Sigma), or anti-goat IgG, Horseradish Peroxidase (1:1000, Sigma) for 2 h, washed. Subsequently visualized with the Amersham ECL system (Amersham, Arlington Heights, Ill., USA).
# [1] = test system: tyrosine hydroxylase (TH); assay: TH activity; assay type: in vivo, mice; conditions: for TH activity: drug alone (no MPTP); for effect on MPTP-induced decrease of TH activity: one day after final MPTP, vs. MPTP alone
# [2] = test system: tyrosine hydroxylase (TH); assay: Western blotting for pan-TH and TH phosphorylation; assay type: in vivo, mice; conditions: for effect on MPTP-induced decrease of TH phosphorylation at Ser19, Ser31 and Ser40: pre-treatment; for effect on MPTP-induced decrease of TH phosphorylation at Ser19, Ser31 and Ser40 / effect on MPTP-induced decrease of TH-immunoreactivity (TH-IR): vs. MPTP alone
# Description: as §1
# protein carbonyl = assay: Determination of protein carbonyl (Oxyblot assay); assay type: in vivo, mice; conditions: striatum; for protein carbonyl expression: drug alone (no MPTP); for effect on MPTP-induced increase in protein carbonyl expression: one day after final MPTP, vs. MPTP alone
# Description: Total protein ([…]) was used to perform the Oxyblot assay. The amount of oxidized proteins was measured using the Oxyblot kit (Chemicon International, CA), following the manufacturer's instructions. Briefly, the protein carbonyl content was measured by first forming labeled protein hydrazone derivatives using 2,4-dinitrophenylhydrazide (DNP). The INP-derivatized protein samples were separated by polyacrylamide gel electrophoresis followed by Western blotting. Blots were then incubated with primary antibody specific to the DNP moiety, followed by incubation with a horseradish peroxidase-antibody conjugate directed against the primary antibody. The blots were then treated with chemiluminescent reagents (Amersham) (Gemma et al., 2004).
# α-synuclein = assay: Oligomergic α-synuclein expression (western blot); assay type: in vivo, mice; conditions: striatum; for effect on MPTP-induced increase in oligomergic α-synuclein: vs. MPTP alone
# Description: as §1
# phospho-PI3K = assay: Phosphorylation of PI3K (western blot); assay type: in vivo, mice; conditions: striatum; for effect on MPTP-induced decrease in phospho-PI3K: vs. MPTP alone
# Description: as §1
# mice = assay: Conditioned place preference (CPP); assay type: in vivo; conditions: selegiline or MPPE 2.5 or 5.0 mg/kg i.p., MA 0.5 or 1.0 mg/kg i.p.; vs. saline
# Description: For conditioned place preference (CPP) test, mice received an i.p. injection of saline just before entering the […] compartment. MA (0.5 or 1.0 mg/kg, i.p.), selegiline (2.5 or 5.0 mg/kg, i.p.), and MPPE (2.5 or 5.0 mg/kg, i.p.) dissolved in saline was administered immediately before the mice were placed in the white compartment. On day 1, the mice were pre-exposed to the test apparatus for 15 minutes. The guillotine style doors were raised and mice were allowed to move freely between the two compartments. On day 2, the time each mouse spent in each compartment was recorded for 15 minutes. On days 3, 5, 7, 9, 11, and 13, the mice were injected with each drug before being confined to the white compartment, the non-preferred side, for 40 minutes. On day 14, the guillotine doors were raised. The mice were initially placed in the tunnel and the time spent by the mice in the two compartments was recorded for 15 minutes. The scores were calculated from the differences in the time spent in the white compartment in the testing and pre-testing phases. Data were analyzed between 09:00 and 17:00 hours.
# [3] = test system: brain derived neurotrophic factor (BDNF); assay: BDNF expression (western blot); assay type: in vivo, mice; conditions: striatum; for effect on MPTP-induced reduction of BDNF expression: pre-treatment, vs. MPTP alone
# Description: as §1
# [4] = test system: reactive oxygen species (ROS); assay: Determination of ROS formation; assay type: in vivo, mice; conditions: striatum; for ROS level: drug alone (no MPTP); for effect on MPTP-induced increase in ROS level: one day after final MPTP, vs. MPTP alone
# Description: The extent of reactive oxygen species (ROS) formation in the prefrontal cortex was assessed by measuring the conversion from 2′,7′-dichlorofluorescin diacetate (DCFH-DA) to dichlorofluoresin. (DCF) as describe by Bourre et al. with slight modification (Sutsumi, S et al., 2002). Brain homogenates were added to a tube containing 2 ml of PBS with 10 nmole of DCFH-DA, dissolved in methanol. Mixtures were incubated at 37° C. for 3 h and then measured the […] at 480 nm excitation and 525 nm emission. DCF is used as a standard.
# MPTP-treated mice = assay: Rota-rod test in MPTP-treated mice; conditions: 2.5 mg/kg i.p.; for effect on MPTP-impaired Rota-rod performance: vs. MPTP alone
# Description: The apparatus (Ugo Basile model 7650) consisted of a base platform and a rotating rod with a nonslippery surface. The rod was placed at a height of 15 cm from the base. The rod, 30 cm in length, was divided into 5 equal sections by 6 opaque disks (so that the subjects cannot be distracted by one another). To assess motor performance, the mice were first trained on the apparatus 2 minutes at a rate 4 r.p.m. per 30 s prior to the test. The test was performed 30 minutes after training and an accelerating paradigm was applied at a rate 4 r.p.m. per 30 s, starting from 4 r.p.m. to a maximum speed of 40 r.p.m., then the rotation speed was kept constant at 40 r.p.m. for a maximum of 300 s. The duration for which the animal could maintain balance on the rotating drum was measured as the rotarod latency, with a maximal cut-off time of 300 s.
# [5] = striatum and SN, vs. selegiline+MPTP
SMILES,effect on MPTP-induced decrease in phospho-Akt (phospho-Akt),TH activity [1],effect on MPTP-induced decrease of TH activity ([1]; striatum),effect on MPTP-induced decrease of TH activity ([1]; substantia nigra (SN)),"effect on MPTP-induced decrease of TH phosphorylation at Ser19, Ser31 and Ser40 ([2]; SN)","effect on MPTP-induced decrease of TH-immunoreactivity (TH-IR) ([2]; SN, western blotting)","effect on MPTP-induced decrease of TH phosphorylation at Ser19, Ser31 and Ser40 ([2]; striatum)","effect on MPTP-induced decrease of TH-immunoreactivity (TH-IR) ([2]; striatum, western blotting)",protein carbonyl expression (protein carbonyl),effect on MPTP-induced increase in protein carbonyl expression (protein carbonyl),effect on MPTP-induced increase in oligomergic α-synuclein (α-synuclein),effect on MPTP-induced decrease in phospho-PI3K (phospho-PI3K),conditioned place preference (CPP) (mice),effect on MPTP-induced reduction of BDNF expression [3],ROS level [4],effect on MPTP-induced increase in ROS level [4],effect on MPTP-impaired Rota-rod performance (MPTP-treated mice),further results
"C#CCN(C)CCc1ccccc1 [MPPE, N-methyl-N-propynyl-2-phenylethylamine]",significantly attenuated,did not show any significant effect,attenuated,attenuated,reversed,attenuated,reversed,attenuated,a little induction,attenuated,significantly attenuated,significantly attenuated,did not significantly change,significantly attenuated,a little induction,attenuated,significantly attenuated,"attenuation of phospho-Akt decrease compared with selegiline (phospho-Akt; vs. selegiline+MPTP): more pronounced in MPPE-treated mice; attenuation of TH activity decrease compared with selegiline [1, 5]: more effective; effect on TH phosphorylation at Ser19, Ser31 and Ser40 compared with selegiline [2, 5]: more effective; attenuation of TH-IR decrease compared with selegiline ([2]; striatum and SN, western blotting, vs. selegiline+MPTP): more evident; attenuation of protein carbonyl increase compared with selegiline (protein carbonyl; vs. selegiline+MPTP): appeared to be more underlined in the MPPE-pretreated mice; protection against α-synuclein increase compared with selegiline (α-synuclein; vs. selegiline+MPTP): more protective effect; attenuation of phospho-PI3K decrease compared with selegiline (phospho-PI3K; vs. selegiline+MPTP): more pronounced in MPPE-treated mice; enhancement of BDNF expression compared with selegiline ([3]; vs. selegiline+MPTP): more effective; attenuation of ROS increase compared with selegiline ([4]; vs. selegiline+MPTP): appeared to be more underlined in the MPPE-pretreated mice; attenuation of MPTP-reduced rota-rod performance compared with selegiline (MPTP-treated mice; vs. selegiline-pretreated): more pronounced in the MPPE-pretreated mice than selegiline-pretreated case"
"C#CCN(C)[C@H](C)Cc1ccccc1 [selegiline, reference compound]",significantly attenuated,did not show any significant effect,attenuated,attenuated,reversed,attenuated,reversed,attenuated,a little induction,attenuated,significantly attenuated,significantly attenuated,significantly increased compared with saline,significantly attenuated,a little induction,attenuated,significantly attenuated,
